Laboratory results reported in patent US4474764A, “3-Amino-2-hydroxy-4-phenylbutanoic acid derivatives and pharmaceutical composition containing the same” (Zaidan Hojin Biseibutsu Kagaku Kenkyu Kai, priority 1981, dated 1984).

Key:
enkephalinase = target: T1, enkephalinase (Rattus norvegicus, UniProt P07861); experiment: Inhibitory activity against enkephalinase (Test 1); assay type: biochemical; details: enkephalinase from corpus striatum of rat brain; substrate methionine-enkephaline; 37° C., 1 hour; pH 7.7
T1 construct: homogenizing corpus striatum of rat brain and by partial purification of the brain homogenate; from tissue; host or cells: rat brain corpus striatum, homogenate partially purified by the method of Gorenstein et al
T1 sequence (P07861 1-750): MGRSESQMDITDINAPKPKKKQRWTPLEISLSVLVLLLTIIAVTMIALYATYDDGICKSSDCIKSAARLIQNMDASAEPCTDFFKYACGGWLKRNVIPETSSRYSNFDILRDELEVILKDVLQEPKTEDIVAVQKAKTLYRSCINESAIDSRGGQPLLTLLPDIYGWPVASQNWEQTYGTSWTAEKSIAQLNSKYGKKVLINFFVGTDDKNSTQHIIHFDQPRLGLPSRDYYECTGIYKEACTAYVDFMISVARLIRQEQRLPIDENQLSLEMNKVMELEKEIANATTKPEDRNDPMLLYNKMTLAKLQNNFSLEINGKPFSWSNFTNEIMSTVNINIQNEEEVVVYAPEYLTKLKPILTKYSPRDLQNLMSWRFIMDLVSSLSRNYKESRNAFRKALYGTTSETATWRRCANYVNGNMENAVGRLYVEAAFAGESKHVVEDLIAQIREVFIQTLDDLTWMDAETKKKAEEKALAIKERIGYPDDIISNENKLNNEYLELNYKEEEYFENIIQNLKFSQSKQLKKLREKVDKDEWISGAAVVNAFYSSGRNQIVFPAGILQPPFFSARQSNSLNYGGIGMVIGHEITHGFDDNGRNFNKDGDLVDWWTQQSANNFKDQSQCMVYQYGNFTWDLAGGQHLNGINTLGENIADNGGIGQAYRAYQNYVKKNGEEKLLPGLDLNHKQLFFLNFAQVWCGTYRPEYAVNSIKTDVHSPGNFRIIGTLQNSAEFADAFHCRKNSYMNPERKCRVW
Method: Inhibitory activity against enkephalinase were tested.
A preparation of enkephalinase was made by homogenizing corpus striatum of rat brain and by partial purification of the brain homogenate according to the method of Gorenstein et al (see the "Life Science" Vol. 25, 2065~2070 (1979) Pergamon Press, U.S.A.).
A test compound was dissolved in a mixture of Trishydrochloride buffered solution (pH 7.7) and an aqueous 1% Triton X100 (an active surfectant) to such a concentration that the added quantity of the test compound amounted to one-tenth of the volume of said mixture. To the solution of the test compound so prepared was added the enkephalinase, followed by incubation for five minutes at ambient temperature and further by addition of methionine-enkephaline as the substrate. The admixture so obtained was incubated at 37° C. for 1 hour and then subjected to a high-performance liquid chromatography in such a manner that the Tyr-Gly-GLy (a fragment of the methionine-enkephaline) formed by the enzymatic degradation of methionine-enkephaline was isolated in some fractions of the eluate and the quantity of Tyr-Gly-GLy was determined by an electro-chemically analysing detector. In this way, IC50 value of the test compound, namely the dose of the test compound required for 50% inhibition of the enkephalinase was measured.

[1] = test system: morphine analgesia-non-effective Wistar rats; experiment: Effect of enhancing morphine analgesia, tail-flick latency (Test 2); assay type: in vivo, rat; details: 250 mg/kg test compound i.p., 10 minutes later 0.5 mg/kg morphine i.p.; versus 0.5 mg/kg morphine alone; tail-flick latency
Method: Effect of enhancing morphine analgesia was tested.
To Wistar rats (10 week-age, male, body weight 250~300 g) was given intraperitoneally morphine at a dose of 0.5 mg/kg, and these rats receiving the morphine were classified into the group of morphine analgesia-effective rats and the group of morphine analgesia-non-effectiverats according to the classification method described in the "Showa Igakukai Zasshi" Vol. 39, No. 5, pages 537~542 (1979). […] The effect of analgesia was evaluated according to the method of tail-flick latency of rats described in the "Showa Igakukai Zasshi" Vol. 39, No. 5, pages 537~542 (1979). The evaluation of pain threshold of rats according to the tail-flick latency method was made as follows: Radiant heat stimulus was applied to the region of the rat tail which positioned 1 cm away from the tail tip and which had been colored black with a black-dye, and the time of latency involved in the tail flick, namely the period of time lapsing between the time of application of the heat stimulus and the time of the reflective flick response of the tail was measured. The quantity of the heat applied was so controlled that the average time of latency of the tail-flick response appearing in the control group of rats (receiving neither the test compound nor the morphine) was about 2.0 seconds. The tests were accomplished as long as the maximum value for the tail-flick latency was 7.0 seconds or less, as otherwise the skin of the rat tail could be damaged by the application of heat. In other words, if the time for the tail-flick latency was longer than 7.0 seconds, the tests were stopped to prevent the damage of the rat tail. The radiant heat stimulus was repeated 5 times for each test rat at an interval of 15 minutes and the times of latency in the flick response of the tail measured in each test were averaged. In each test, 5 rats were used.
The difference in the time of the tail-flick latency between the test rats (receiving 250 mg/kg of the test compound plus 0.5 mg/kg of morphine) and the control rats (receiving 0.5 mg/kg of morphine alone) was calculated, and the effect for enhancement of morphine analgesia was estimated in term of the value of percentages which were calculated by the following equation: [formula]

SMILES | IC50 (enkephalinase) [µM] | Morphine Analgesia enhancement [1] [%]
NCC(=O)N[C@H](Cc1ccccc1)[C@H](O)C(=O)O [Compound 1, (2S,3R)-3-N--glycylamino-2-hydroxy-4-phenylbutanoic acid] | 2780 | 25.7
CC(C)C[C@@H](N)C(=O)N[C@H](Cc1ccccc1)[C@@H](O)C(=O)O [Compound 18, (2R,3R)-3-N--(R)-leucylamino-2-hydroxy-4-phenylbutanoic acid] | 2650 | 23.4
CC(C)C[C@H](N)C(=O)N[C@H](Cc1ccccc1)[C@H](O)C(=O)O [Compound 8, (2S,3R)-3-N--(S)--leucylamino-2-hydroxy-4-phenylbutanoic acid] | 2560 | 22.5
N[C@@H](Cc1ccc(O)cc1)C(=O)NCC(=O)NCC(=O)N[C@@H](Cc1ccccc1)[C@@H](O)C(=O)O [Compound 16, (2R,3S)--3-N--(S)--tyrosylglycylglycylamino-2-hydroxy-4-phenylbutanoic acid] | 440 | 15.2
N[C@H](Cc1ccccc1)C(=O)N[C@H](Cc1ccc(O)cc1)[C@H](O)C(=O)O [Compound 17, (2S,3R)-3-N--(R)-phenylalanylamino-2-hydroxy-4-p-hydroxy-phenylbutanoic acid] | 130 | 32.1
CC(C)C[C@H](NC(=O)[C@@H](O)[C@H](N)Cc1ccccc1)C(=O)O [Bestatin, (2S,3R)-3-amino-2-hydroxy-4-phenylbutanoyl-(S)-leucine, reference compound] | 590 | 19.9
COC(=O)[C@@H](O)[C@@H](Cc1ccccc1)NC(=O)CN.Cl [Compound 2, (2S,3R)-3-N--glycylamino-2-hydroxy-4-phenylbutanoic acid methyl ester hydrochloride] | 300 | 11.6
N[C@H](Cc1ccccc1)[C@H](O)C(=O)N[C@H](Cc1ccccc1)[C@H](O)C(=O)O [Compound 12, (2S,3R)-3-N--[(2'S,3'R)-3'-amino-2'-hydroxy-4'-phenylbutanoyl]amino-2-hydroxy-4-phenylbutanoic acid] | > 20000 | 15.7
COC(=O)[C@@H](O)[C@@H](Cc1ccccc1)NC(=O)CNC(=O)CN.Cl [Compound 5, (2S,3R)-3-N--glycylglycylamino-2-hydroxy-4-phenylbutanoic acid methyl ester hydrochloride] | 1520 | 19.0
C[C@@H](N)C(=O)N[C@H](Cc1ccccc1)[C@H](O)C(=O)O [Compound 14, (2S,3R)-3-N--(R)-alanylamino-2-hydroxy-4-phenylbutanoic acid] | 2140 | 16.8
CC(=O)NCC(=O)NCC(=O)N[C@H](Cc1ccccc1)[C@H](O)C(=O)[O-].[Na+] [Compound 13, (2S,3R)-3-N--(N'--acetylglycylglycyl)amino-2-hydroxy-4-phenylbutanoic acid sodium salt] | – | 33.1
CNCC(=O)N[C@H](Cc1ccccc1)[C@H](O)C(=O)O [Compound 7, (2S,3R)-3-N--(N'--methylglycyl)amino-2-hydroxy-4-phenylbutanoic acid] | – | 16.2
C[C@@H](NC=O)C(=O)N[C@H](Cc1ccccc1)[C@H](O)C(=O)[O-].[Na+] [Compound 15, (2S,3R)-3-N--(N'--formyl-(R)-alanyl)amino-2-hydroxy-4-phenylbutanoic acid sodium salt] | 150 | 19.7
CC(=O)NCC(=O)NCC(=O)N[C@H](Cc1ccccc1)[C@H](O)C(=O)O [Compound 6, (2S,3R)-3-N--(N'--acetylglycylglycyl)amino-2-hydroxy-4-phenylbutanoic acid] | 2450 | 32.5
NCC(=O)NCC(=O)N[C@H](Cc1ccccc1)[C@H](O)C(=O)O [Compound 4, (2S,3R)-3-N--glycylglycylamino-2-hydroxy-4-phenylbutanoic acid] | 240 | 10.6
CC(C)C[C@@H](N)C(=O)N[C@H](Cc1ccccc1)[C@H](O)C(=O)O [Compound 9, (2S,3R)-3-N--(R)-leucylamino-2-hydroxy-4-phenylbutanoic acid] | 2480 | 26.3
COC(=O)[C@@H](O)[C@@H](Cc1ccccc1)NC(=O)CNC(C)=O [Compound 3, (2S,3R)-3-N--(N'--acetylglycyl)amino-2-hydroxy-4-phenylbutanoic acid methyl ester] | 5480 | 22.9
NCC[C@H](O)C(=O)N[C@H](Cc1ccccc1)[C@H](O)C(=O)O [Compound 11, (2S,3R)-3-N--[4'-amino-(2'S)--2'-hydroxybutanoyl]amino-2-hydroxy-4-phenylbutanoic acid] | 1280 | 21.6
